Data on 24 compounds can be found in patent US8008303B2, “Biphenyl derivatives and their use in treating hepatitis C” (AstraZeneca AB, priority 2005, dated 2011).

Where two headings read alike, the source gives them in different places. Some results are limits rather than exact numbers.

In data set [1] the test system is HCV replicon cells Huh 9B. Type of data set: cell-based.
Data set [2] deals with HCV replicon cells Huh 9B. The experiment in a line: HCV replicon assay (luciferase readout). In kind it is cell-based. An outline of the steps:
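Compounds, made up at twice final strength (final DMSO 1%), were added to subgenomic replicon cells one day after plating. Incubation then ran 72 h at 37 °C, 5% CO2, without G418. Replication was quantified as firefly luciferase luminescence in lysed cells, with cytotoxicity assessed on a duplicate clear plate.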
On the technique in general: Replicon systems follow genome replication, usually without infectious particles.

[3] abbreviates: concentration reducing total cell area by 50% relative to DMSO controls, methylene blue, absorbance 620 nm, 72 h incubation.
[4] abbreviates: Hepatitis C virus, 72 h, concentration reducing replicon level (luciferase activity) by 50% vs untreated cell control, 72 h incubation.

For the compound `CCCS(=O)(=O)N1CCN(Cc2ccc(NC(=O)c3ccc(-c4cc(NC(=O)C5CC5)ccc4OC(F)(F)F)cc3)cc2)CC1` [Example 237, 5′-(Cyclopropanecarbonyl-amino)-2′-trifluoromethoxy-biphenyl-4-carboxylic acid {4-[4-(propane-1-sulfonyl)-piperazin-1-ylmethyl]-phenyl}-amide], in data set [1] (setting [3]), the TD50 result was “* (* < 50 μM)”. The same compound had an IC50 in data set [2] (setting [4]) below 1 µM.

For the compound `COc1ccc(C(=O)Nc2ccc(N3CCOCC3)cc2)cc1-c1ccc(C(=O)Nc2ccc(CN3CCN(S(=O)(=O)N(C)C)CC3)cc2)cc1` [Example 259, 6-Methoxy-biphenyl-3,4′-dicarboxylic acid 4′-{[4-(4-dimethylsulfamoyl-piperazin-1-ylmethyl)-phenyl]-amide} 3-[(4-morpholin-4-yl-phenyl)-amide]], the TD50 result in data set [1] is listed as “* (key: * < 50 μM; ** > 50 μM)”. Further, the IC50 in data set [2] is below 1 µM.

As for `Cc1ccc(C(=O)Nc2ccc(N3CCOCC3)cc2)cc1-c1ccc(CNC(CO)Cc2cnc[nH]2)cc1` (stereo not drawn) [Example 101, 4′-{[1-Hydroxymethyl-2-(3H-imidazol-4-yl)-ethylamino]-methyl}-6-methyl-biphenyl-3-carboxylic acid (4-morpholin-4-yl-phenyl)-amide], in data set [1] (setting [3]), the TD50 result is on record as “* (* < 50 μM)”. In data set [2] (setting [4]), this compound gave a half-maximal inhibitory concentration (IC50) below 1 µM.

Regarding `Cc1ccc(C(=O)Nc2ccc(N3CCOCC3)cc2)cc1-c1ccc(C(=O)Nc2ccccc2CN2CCCCC2)cc1` [Example 80, 6-Methyl-biphenyl-3,4′-dicarboxylic acid 3-[(4-morpholin-4-yl-phenyl)-amide] 4′-[(2-piperidin-1-ylmethyl-phenyl)-amide]], the TD50 result in data set [1] was “* (key: * < 50 μM; ** > 50 μM)”. Besides, the IC50 in data set [2] fell in the range of 1 to 5 µM.

Consider `Cc1ccc(NC(=O)c2cccs2)cc1-c1ccc(C(=O)Nc2ccc(CN3CCS(=O)(=O)CC3)cc2)cc1` [Example 155, Thiophene-2-carboxylic acid {4′-[4-(1,1-dioxo-1lambda*6*-thiomorpholin-4-ylmethyl)-phenylcarbamoyl]-6-methyl-biphenyl-3-yl}-amide], for which the TD50 result in data set [1] (setting [3]) is listed as “* (* < 50 μM)”. The compound also showed an IC50 in data set [2] (setting [4]) below 1 µM.

Take `CCCS(=O)(=O)N1CCN(Cc2ccc(NC(=O)c3ccc(-c4cc(NC(=O)NC5CCCCC5)ccc4Cl)cc3)cc2)CC1` [Example 253, 2′-Chloro-5′-(3-cyclohexyl-ureido)-biphenyl-4-carboxylic acid {4-[4-(propane-1-sulfonyl)-piperazin-1-ylmethyl]-phenyl}-amide]: the TD50 entry in data set [1] (setting [3]) was “* (* < 50 μM)”. For the same compound, in data set [2] (setting [4]), the IC50 was below 1 µM.

Regarding `Cc1cc(NC(=O)c2ccco2)ccc1-c1cccc(C(=O)Nc2ccc(N3CCOCC3)cc2)c1` [Example 114, Furan-2-carboxylic acid [2-methyl-3′-(4-morpholin-4-yl-phenylcarbamoyl)-biphenyl-4-yl]-amide], the TD50 result in data set [1] (setting [3]) is “* (* < 50 μM)”. The compound also came in with an IC50 in data set [2] (setting [4]) above 5 µM.

As for `CCOC(=O)c1cccc(NC(=O)c2ccc(-c3cc(C(=O)Nc4ccc(N5CCOCC5)cc4)ccc3C)cc2)c1` [Example 32, 3-{[2′-Methyl-5′-(4-morpholin-4-yl-phenylcarbamoyl) -biphenyl-4-carbonyl]-amino}-benzoic acid ethyl ester], the TD50 result in data set [1] (setting [3]) is reported as “** (** > 50 μM)”. The compound also came in with an IC50 in data set [2] (setting [4]) below 1 µM.

Regarding `CCCCNS(=O)(=O)c1cccc(NC(=O)c2ccc(-c3cc(C(=O)Nc4ccc(N5CCOCC5)cc4)ccc3C)cc2)c1` [Example 21, 6-Methyl-biphenyl-3,4′-dicarboxylic acid 4′-[(3-butylsulfamoyl-phenyl)-amide] 3-[(4-morpholin-4-yl-phenyl)-amide]], the TD50 entry in data set [1] is listed as “** (key: * < 50 μM; ** > 50 μM)”. This compound also gave an IC50 in data set [2] of 1 to 5 µM.

`Cc1ccc(NC(=O)C2CCCCC2)cc1-c1ccc(C(=O)Nc2ccc(CN3CCOCC3)cc2)cc1` [Example 226, 5′-(Cyclohexanecarbonyl-amino)-2′-methyl-biphenyl-4-carboxylic acid (4-morpholin-4-ylmethyl-phenyl)-amide]: the TD50 entry in data set [1] (setting [3]) was “* (* < 50 μM)”. Further, in data set [2] (setting [4]), the IC50 is below 1 µM.

On to `Cc1ccc(C(=O)Nc2ccc(N3CCOCC3)cc2)cc1-c1ccc(C(=O)NCc2ccc(N3CCOCC3)cc2)cc1` [Example 20, 6-Methyl-biphenyl-3,4′-dicarboxylic acid 4′-(4-morpholin-4-yl-benzylamide) 3-[(4-morpholin-4-yl-phenyl)-amide]], for which the TD50 result in data set [1] is given as “** (key: * < 50 μM; ** > 50 μM)”. In data set [2], this compound gave an IC50 above 5 µM.

For `Cc1ccc(C(=O)NCC2CCCO2)cc1-c1ccc(C(=O)Nc2ccc(CN3CCS(=O)(=O)CC3)cc2)cc1` (stereo not drawn) [Example 124, 6-Methyl-biphenyl-3,4′-dicarboxylic acid 4′-{[4-(1,1-dioxo-1lambda*6*-thiomorpholin-4-ylmethyl)-phenyl]-amide} 3-[(tetrahydro-furan-2-ylmethyl)-amide]], in data set [1], the TD50 result is recorded as “* (key: * < 50 μM; ** > 50 μM)”. Besides, in data set [2], the IC50 is 1 to 5 µM.

With `Cc1ccc(C(=O)NC2CCCCCC2)cc1-c1ccc(C(=O)Nc2ccc(CN3CCS(=O)(=O)CC3)cc2)cc1` [Example 147, 6-Methyl-biphenyl-3,4′-dicarboxylic acid 3-cycloheptylamide 4′-{[4-(1,1-dioxo-1lambda*6*-thiomorpholin-4-ylmethyl)-phenyl]-amide}], the TD50 entry in data set [1] is “* (key: * < 50 μM; ** > 50 μM)”. Also, the IC50 in data set [2] lay within 1 to 5 µM.

On to `CCCS(=O)(=O)N1CCN(Cc2ccc(NC(=O)c3ccc(-c4cc(C(=O)Nc5ccc(N6CCOCC6)c(F)c5)ccc4Cl)cc3)cc2)CC1` [Example 264, 6-Chloro-biphenyl-3,4′-dicarboxylic acid 3-[(3-fluoro-4-morpholin-4-yl-phenyl)-amide] 4′-({4-[4-(propane-1-sulfonyl)-piperazin-1-ylmethyl]-phenyl}-amide)], for which the TD50 result in data set [1] (setting [3]) is given as “* (* < 50 μM)”. For the same compound, the IC50 in data set [2] is below 1 µM.

As for `CCCS(=O)(=O)N1CCN(Cc2ccc(NC(=O)c3ccc(-c4cc(NC(=O)[C@@H]5CCCCN5)ccc4OC(F)(F)F)cc3)cc2)CC1` [Example 238, (S)-Piperidine-2-carboxylic acid (4′-{4-[4-(propane-1-sulfonyl)-piperazin-1-ylmethyl]-phenylcarbamoyl}-6-trifluoromethoxy-biphenyl-3-yl)-amide], the TD50 entry in data set [1] (setting [3]) is given as “* (* < 50 μM)”. Besides, the IC50 in data set [2] (setting [4]) was below 1 µM.

Regarding `Cc1ccc(NC(=O)c2ccc(Br)cc2)cc1-c1ccc(C(=O)Nc2ccc3cn[nH]c3c2)cc1` [Example 211, 5′-(4-Bromo-benzoylamino)-2′-methyl-biphenyl-4-carboxylic acid (1H-indazol-6-yl)-amide], the TD50 entry in data set [1] (setting [3]) is “* (* < 50 μM)”. The IC50 in data set [2] (setting [4]) fell in the range of 1 to 5 µM.

For `Cc1ccc(C(=O)Nc2ccc(N3CCOCC3)cc2)cc1-c1ccc(NC(=O)c2ccc(CN3CCOCC3)cc2)cc1` [Example 118, 6-Methyl-4′-(4-morpholin-4-ylmethyl-benzoylamino)-biphenyl-3-carboxylic acid (4-morpholin-4-yl-phenyl)-amide], the TD50 entry in data set [1] (setting [3]) was “* (* < 50 μM)”. This compound also registered an IC50 in data set [2] (setting [4]) above 5 µM.

For `COc1ccc(C(=O)Nc2ccc(-c3cc(C(=O)Nc4ccc(N5CCOCC5)cc4)ccc3C)cc2)cc1OC` [Example 110, 4′-(3,4-Dimethoxy-benzoylamino)-6-methyl-biphenyl-3-carboxylic acid (4-morpholin-4-yl-phenyl)-amide], the TD50 result in data set [1] (setting [3]) is “** (** > 50 μM)”. Also, the half-maximal inhibitory concentration (IC50) in data set [2] (setting [4]) was in the range of 1 to 5 µM.

For the compound `Cc1ccc(C(=O)Nc2ccc(N3CCOCC3)cc2)cc1-c1ccc(C(=O)Nc2ccc3[nH]ccc3c2)cc1` [Example 45, 6-Methyl-biphenyl-3,4′-dicarboxylic acid 4′-[(1H-indol-5-yl)-amide] 3-[(4-morpholin-4-yl-phenyl)-amide]], the TD50 result in data set [1] was “** (key: * < 50 μM; ** > 50 μM)”. The IC50 in data set [2] is 1 to 5 µM.

Take `Cc1ccc(C(=O)Nc2ccc(N3CCOCC3)cc2)cc1-c1ccc(C(=O)NCc2cccc(Cl)c2F)cc1` [Example 57, 6-Methyl-biphenyl-3,4′-dicarboxylic acid 4′-(3-chloro-2-fluoro-benzylamide) 3-[(4-morpholin-4-yl-phenyl)-amide]]: the TD50 entry in data set [1] is listed as “** (key: * < 50 μM; ** > 50 μM)”. The same compound yielded an IC50 in data set [2] of 1 to 5 µM.

Consider `Cc1ccc(C(=O)Nc2ccc(N3CCOCC3)cc2)cc1-c1ccc(C(=O)Nc2ccc(-c3cc[nH]n3)cc2)cc1` [Example 56, 6-Methyl-biphenyl-3,4′-dicarboxylic acid 3-[(4-morpholin-4-yl-phenyl)-amide] 4′-{[4-(1H-pyrazol-3-yl)-phenyl]-amide}], for which the TD50 result in data set [1] was “* (key: * < 50 μM; ** > 50 μM)”. The compound further returned an IC50 in data set [2] below 1 µM.

Consider `Cc1ccc(NC(=O)c2ccc(N3CCOCC3)cc2)cc1-c1ccc(C(=O)Nc2cccc(OC(F)(F)F)c2)cc1` [Example 68, 2′-Methyl-5′-(4-morpholin-4-yl-benzoylamino)-biphenyl-4-carboxylic acid (3-trifluoromethoxy-phenyl)-amide], for which the TD50 result in data set [1] (setting [3]) is “** (** > 50 μM)”. Besides, the IC50 in data set [2] (setting [4]) was in the range of 1 to 5 µM.

Regarding `Cc1ccc(-c2ccc(C(=O)Nc3ccc(CN4CCS(=O)(=O)CC4)cc3)cc2C)cc1NC(=O)C1CC1` [Example 172, 3′-(Cyclopropanecarbonyl-amino)-2,4′-dimethyl-biphenyl-4-carboxylic acid [4-(1,1-dioxo-1lambda*6*-thiomorpholin-4-ylmethyl)-phenyl]-amide], the TD50 result in data set [1] (setting [3]) is “* (* < 50 μM)”. For the same compound, the 50% inhibitory concentration (IC50) in data set [2] (setting [4]) lay in the range of 1 to 5 µM.

In the case of `Cc1ccc(C(=O)Nc2ccc(C(=O)N3CCCCC3)cc2)cc1-c1ccc(C(=O)Nc2ccc(CN3CCS(=O)(=O)CC3)cc2)cc1` [Example 144, 6-Methyl-biphenyl-3,4′-dicarboxylic acid 4′-{[4-(1,1-dioxo-1lambda*6*-thiomorpholin-4-ylmethyl)-phenyl]-amide} 3-{[4-(piperidine-1-carbonyl) -phenyl]-amide}], the TD50 entry in data set [1] is “* (key: * < 50 μM; ** > 50 μM)”. Moreover, in data set [2], the IC50 lay in the range of 1 to 5 µM.

Broadly, the IC50 is the concentration needed to halve the response being measured. A high value points to weaker potency in that assay.
